Blank lines part the entries; values can stand above or below the compound they belong to.
Key:
[1] = tested on: LKB1 deficient cells (A427, A549, and H2030); test: Viability of KRas mutant NSCLC adenocarcinoma cell lines at various concentrations of AZD1775 (FIGS. 1A, 1B); format: cell-based, human; conditions: LKB1 deficient cells compared with the other KRas mutant NSCLC cell lines
Source text: Referring to FIGS. 1A and 1B, the inventors assessed the impact of various concentrations of a G2/M checkpoint inhibitor (i.e., Wee1 kinase inhibitor-AZD1775) on various cell lines with different genetic backgrounds. All of the cell lines tested in FIGS. 1A and 1B where KRas mutant, some of the cell lines were p53 mutants, and some of the cell lines (i.e., A427, A549, and H2030) were LKB1 deficient. All cell lines were adenocarcinoma from patients with NSCLC.

[2] = tested on: A427 cell line; test: Percent viability with AZD1775, LKB1 rescue vs KDLKB1 transfection (FIG. 2A); format: cell-based, human; conditions: A427 cells with rescue copy of LKB1 compared to control KDLKB1 (non-functional kinase)
Experimental: FIG. 2A illustrates, in accordance with embodiments herein, the role of LKB1 in the sensitivity of A427 cells to AZD1775. The A427 cell line was transfected with either a rescue copy of LKB1 (“LKB1”) or a copy of LKB1 with a non-functional kinase domain (“KDLKB1”) that produces non-functional LKB1. […] Next, referring to FIGS. 2A-2C, the LKB1 deficient lines discussed above in reference to FIGS. 1A and 1B were assessed for percent viability in the presence of increasing concentrations of AZD1775. Moreover, as all three cell lines were already LKB1 deficient, the inventors wanted to elucidate the role of LKB1 in the sensitivity of these cells to AZD1775. As such, each cell line with transfected with either a rescue copy of LKB1 (referred to as “LKB1” in these figures) or a copy of LKB1 with a non-functional kinase domain (referred to as KDLKB1 in these figures), which would produce non-functional LKB1.

[3] = tested on: A549 cell line; test: Percent viability with AZD1775, LKB1 rescue vs KDLKB1 transfection (FIG. 2B); format: cell-based, human; conditions: A549 cells with rescue copy of LKB1 compared to control KDLKB1 (non-functional kinase)
Experimental: FIG. 2B illustrates, in accordance with embodiments herein, the role of LKB1 in the sensitivity of […] to AZD1775. The A549 cell line was transfected with either a rescue copy of LKB1 (“LKB1”) or a copy of LKB1 with a non-functional kinase domain (“KDLKB1”) that produces non-functional LKB1. […] Next, referring to FIGS. 2A-2C, the LKB1 deficient lines discussed above in reference to FIGS. 1A and 1B were assessed for percent viability in the presence of increasing concentrations of AZD1775. Moreover, as all three cell lines were already LKB1 deficient, the inventors wanted to elucidate the role of LKB1 in the sensitivity of these cells to AZD1775. As such, each cell line with transfected with either a rescue copy of LKB1 (referred to as “LKB1” in these figures) or a copy of LKB1 with a non-functional kinase domain (referred to as KDLKB1 in these figures), which would produce non-functional LKB1.

[4] = tested on: A549 and H2030 cells; test: Cell signaling molecules after AZD1775 alone and with 2Gy ionizing radiation (FIGS. 4A, 4B); format: cell-based, human; conditions: AZD1775 alone and in combination with 2Gy of ionizing radiation
Source text: Next, referring now to FIGS. 4A and 4B, the investigators examined cell signaling molecules in A549 and H2030 cells, including both rescue and control conditions. The investigators treated with AZD1775 alone and in combination with 2Gy of ionizing radiation.

[5] = tested on: 3381A murine cells (KRas mutant and LKB1 deficient); test: Percent viability with AZD1775, LKB1 rescue vs empty vector pBabe (FIG. 2D); format: cell-based; conditions: 3381A cells with rescue copy of LKB1 compared to control empty vector (pBabe)
Experimental: Referring now to FIG. 2D, a similar experiment was conducted on murine cells that were KRas mutant and LKB1 deficient (3381A cells).

[6] = tested on: H2030 cells (KRas mutant and LKB1 deficient); test: Viability with AZD1775 combined with cisplatin, pemetrexed or gemcitabine (FIGS. 3A-3C); format: cell-based, human; conditions: AZD1775 alone
Experimental: Similar to the previous experiments, H2030 cells (KRas mutant and LKB1 deficient) were transfected with a rescue copy of LKB1 or a version of LKB1 with a non-functional kinase domain that produces non-functional LKB1 protein. Moreover, these different cells were treated with AZD1775 (also referred to as MK1775) in combination with cisplatin (FIG. 3A), pemetrexed (FIG. 3B), or gemcitabine (FIG. 3C).

[7] = tested on: H2030 cell line; test: Percent viability with AZD1775, LKB1 rescue vs KDLKB1 transfection (FIG. 2C); format: cell-based, human; conditions: H2030 cells with rescue copy of LKB1 compared to control KDLKB1 (non-functional kinase)
Experimental: FIG. 2C illustrates, in accordance with embodiments herein, the role of LKB1 in the sensitivity of […] to AZD1775. The H2030 cell line was transfected with either a rescue copy of LKB1 (“LKB1”) or a copy of LKB1 with a non-functional kinase domain (“KDLKB1”) that produces non-functional LKB1.
Next, referring to FIGS. 2A-2C, the LKB1 deficient lines discussed above in reference to FIGS. 1A and 1B were assessed for percent viability in the presence of increasing concentrations of AZD1775. Moreover, as all three cell lines were already LKB1 deficient, the inventors wanted to elucidate the role of LKB1 in the sensitivity of these cells to AZD1775. As such, each cell line with transfected with either a rescue copy of LKB1 (referred to as “LKB1” in these figures) or a copy of LKB1 with a non-functional kinase domain (referred to as KDLKB1 in these figures), which would produce non-functional LKB1.

[8] = tested on: mutant kras/lkb 1 deficient nsclc tumors in transgenic mice; test: Survival of adenoCre-infected KRasG12D/LKB1 FL/FL/luci mice (FIG. 9); format: in vivo; conditions: Cisplatin once per week 2.5 mg/kg, with or without AZD1775 30 mg/kg three times per week; treated for four weeks; log-rank analysis
Experimental: Referring to FIG. 9, the investigators transiently infected 6-8 week old KRas^G12D/LKB 1^FL/FL/luci with 5×10^6 P.F.U. of adenoCre via intratracheal inhalation. Mice received scans using the Xenogen IVIS at 8 weeks to identify disease. Mice were then randomized to Cisplatin (once per week, 2.5 mg/kg) or AZD1775 (30 mg/kg, three times per week)+cisplatin and treated for four weeks. Survival was calculated via log-rank analysis. It was observed that the median survival rate of mice receiving Cisplatin was 12 weeks, whereas the median survival rate of mice receiving Cisplatin+AZD1775 was 14 weeks. For this set of experiments, the hazard ratio was 0.3972, while the confidence interval was 0.0605-0.6086.

- EC50 values ([1]; FIG. 1B): lowest EC50 values
SMILES: C=CCn1c(=O)c2cnc(Nc3ccc(N4CCN(C)CC4)cc3)nc2n1-c1cccc(C(C)(C)O)n1 [AZD1775]
- viability ([1]; increasing concentrations of AZD1775, FIG. 1A): greatest reduced viability
- sensitivity to AZD1775 as measured by percent viability [2]: less sensitive
- sensitivity to AZD1775 as measured by percent viability [3]: less sensitive
- phosphorylated AMPK ([4]; LKB1 (rescue) cells): increased amounts of phosphorylated AMPK
- phosphorylated H2AX (indicator of DNA damage) ([4]; LKB1-deficient cells): increased amount of phosphorylated H2AX
- sensitivity to AZD1775 as measured by percent viability [5]: less sensitive
- cell viability [6]: negative impact on cell viability
- sensitivity to AZD1775 as measured by percent viability [7]: less sensitive

SMILES: N.N.[Cl][Pt][Cl] [Cisplatin]
- median survival rate [8]: 12 weeks

From patent US12263170B2, “Systems and methods for treating cancer” (priority 2015, dated 2025)
